From US9574190B2, “Screening method for peptide binding to target molecule in pH-dependent manner” (The University of Tokyo, priority 2012, dated 2017)
Bridge positions count the residues as written; N and C are the ends. Square brackets hold non-standard residues; d marks the D form. Peptide text beside a SMILES is read from it. Tyr(3-NO2) = N[C@@H](Cc1ccc(O)c([N+](=O)[O-])c1)C(=O)O; dTyr(3-NO2) = N[C@H](Cc1ccc(O)c([N+](=O)[O-])c1)C(=O)O; Arg(NO2) = N=C(NCCC[C@H](N)C(=O)O)N[N+](=O)[O-]

Biological target: T1, FcRn (Homo sapiens, UniProt P55899)
T1 construct: human soluble FcRn chemically biotinated with NHS-biotin
Assay: Biacore T100 measurement of dissociation constant of solid-phase synthesized peptide with immobilized FcRn
Assay type: binding
Method: In order to find whether a peptide alone interacts with FcRn in a pH dependent manner, the peptide 2G01D not having SGSGS on the C-terminal side of 8D-01 and amidated at the C-terminal was synthesized on a solid phase and a dissociation constant Kd binding constant was measured using Biacore T100 (GE Healthcare). FcRn was immobilized onto a sensor chip by an amine coupling method. The following is the peptide 2G01D:
On the other hand, a solid-phase synthesized peptide 2G01D was added as an analyte to a phosphate buffer having a pH 6.0 or 7.4 and a dissociation constant was measured.

- koff (pH 6.0, phosphate buffer): 0.00394 s⁻¹
- kon (pH 6.0, phosphate buffer): 925000 M⁻¹ s⁻¹
- koff (pH 7.4, phosphate buffer): 0.00955 s⁻¹
- kon (pH 7.4, phosphate buffer): 32600 M⁻¹ s⁻¹
Compound: CC(C)C[C@@H]1NC(=O)[C@H](Cc2ccc(O)c([N+](=O)[O-])c2)NC(=O)[C@H](CC(C)C)NC(=O)[C@@H]2CCCN2C(=O)[C@H](CC(=O)O)NC(=O)CNC(=O)[C@H](CCCNC(=N)N[N+](=O)[O-])NC(=O)[C@H](CC(N)=O)NC(=O)[C@H](Cc2ccc(O)cc2)NC(=O)[C@H](CC(C)C)NC(=O)[C@H](Cc2ccc(O)c([N+](=O)[O-])c2)NC(=O)[C@H](Cc2ccccc2)NC(=O)[C@@H](Cc2ccc(O)c([N+](=O)[O-])c2)NC(=O)CSC[C@@H](C(=O)NCC(N)=O)NC1=O [2G01D] ({CH2CO}-[dTyr(3-NO2)]F[Tyr(3-NO2)]LYN[Arg(NO2)]GDPL[Tyr(3-NO2)]LCG-NH2; thioether N-14)
